Experiments:
[1] = Sensory testing: sweet capacity in water solution versus sucrose; conditions: dosages 62.5 ppm and 250 ppm, ten experts, dosage for equal sweet intensity from sucrose
Method: Malonyl glycosides 101, 102, 104 and 105 were evaluated in water solution at two selected dosages (62.5 ppm and 250 ppm) to identify their sweet capacity. Ten experts were asked to evaluate sweet, licorice, and sweet lingering intensities on a linear scale. Then, the dosage for equal sweet intensity from sucrose was identified. Sweet capacity for each compound was calculated based on dosage difference between tested compound and sucrose.

[2] = Sensory testing as sweet modifier in SG95 base; conditions: 30 ppm, seven experts, scale -5 to 5 vs reference; for sweet effect as sweet modifier: SG95 (PureCircle) base; for licorice effect as sweet modifier / sweet lingering effect as sweet modifier: SG95 base
Method: (§1) Compound 101 was evaluated as a sweet modifier in SG95 (PureCircle) base at 30 ppm. Seven experts were asked to compare the intensity difference between reference (SG95 base) and Compound 101 was added to the sample. The taste properties (such as sweet, licorice, sweet lingering) were evaluated on a scale of −5 to 5 (−5 denoted strong masking effect and 5 denoted strong enhancing effect, 0 being the intensity of reference).
as §1, with “105” for “101”, “SG95” for “SG95 (PureCircle)”, “added” for “added to the”
as §1, with “104” for “101”, “SG95” for “SG95 (PureCircle)”, “104 adding” for “101 was added to the”

## C=C1C[C@@]23CC[C@H]4[C@@](C)(CCC[C@@]4(C)C(=O)O[C@@H]4O[C@H](CO)[C@@H](O)[C@H](O)[C@H]4O)[C@@H]2CCC1(O[C@@H]1O[C@H](CO)[C@@H](O)[C@H](O)[C@H]1O[C@@H]1O[C@H](COC(=O)CC(=O)O)[C@@H](O)[C@H](O)[C@H]1O)C3 [Compound 105, 6″′-O-malonyl stevioside]
[1]
  sweet capacity (times sweeter than sucrose): about 100 times sweeter than sucrose
[2]
  sweet effect as sweet modifier: sweet enhancement effect

## C=C1C[C@@]2(C)CC[C@H]3[C@@](C)(CCC[C@@]3(C)C(=O)O[C@@H]3O[C@H](COC(=O)CC(=O)O)[C@@H](O)[C@H](O)[C@H]3O)[C@@H]2CCC1(C)O[C@@H]1O[C@H](CO)[C@@H](O)[C@H](O)[C@H]1O[C@@H]1O[C@H](CO)[C@@H](O)[C@H](O)[C@H]1O (some centres unmarked) [Compound 102, 6′-O-malonyl stevioside]
[1]
  sweet capacity (times sweeter than sucrose): about 150 times sweeter than sucrose

## C=C1C[C@@]23CC[C@H]4[C@@](C)(CCC[C@@]4(C)C(=O)O[C@@H]4O[C@H](COC(=O)CC(=O)O)[C@@H](O)[C@H](O)[C@H]4O)[C@@H]2CCC1(O[C@@H]1O[C@H](CO)[C@@H](O)[C@H](O)[C@H]1O)C3 [Compound 104, 6′-O-malonyl rubusoside]
[1]
  sweet capacity (times sweeter than sucrose): about 120 times sweeter than sucrose
[2]
  sweet effect as sweet modifier: sweet enhancement effect
  licorice effect as sweet modifier: performed well on tests for licorice and lingering masking effect
  sweet lingering effect as sweet modifier: performed well on tests for licorice and lingering masking effect

## C=C1C[C@@]23CC[C@H]4[C@@](C)(CCC[C@@]4(C)C(=O)O[C@@H]4O[C@H](COC(=O)CC(=O)O)[C@@H](O)[C@H](O)[C@H]4O)[C@@H]2CCC1(O[C@@H]1O[C@H](CO)[C@@H](O)[C@H](O[C@@H]2O[C@H](CO)[C@@H](O)[C@H](O)[C@H]2O)[C@H]1O[C@@H]1O[C@H](CO)[C@@H](O)[C@H](O)[C@H]1O)C3 [Compound 101, 6′-O-malonyl Rebaudioside A]
[1]
  sweet capacity (times sweeter than sucrose): about 150 times sweeter than sucrose
[2]
  sweet effect as sweet modifier: sweet enhancement effect
  licorice effect as sweet modifier: better performance in licorice and sweet lingering masking than Rebaudioside A
  sweet lingering effect as sweet modifier: better performance in licorice and sweet lingering masking than Rebaudioside A

Source: US12667126B2, “Malonyl steviol glycosides and their comestible use” (Firmenich SA, priority 2020, dated 2026)
